Test results taken from patent US20220323401A1, “FORMULATIONS OF CANNABINOIDS FOR THE TREATMENT OF ACNE” (priority 2017, published 2022).

Key:
[1] = Discoloration of CBD solutions and formulations; type: physicochemical; conditions: by end of day 1
Excerpt: The CBD2 material dissolved like the CBD1 therefore the CBD2 is CBD without the discoloration properties of CBD1.

[2] = test system: immortalized human sebocytes; conditions: cited from earlier work
anandamide = conditions: rat basophilic leukemia cells; cited from earlier work
[3] = target: T1, human vanilloid receptor type 1 (VR1) (Homo sapiens, UniProt Q8NER1); conditions: HEK-hVR1 transfected cells; cited from earlier work
T1 construct: host or cells: HEK cells transfected with hVR1 (HEK-hVR1)
T1 sequence (Q8NER1 whole entry): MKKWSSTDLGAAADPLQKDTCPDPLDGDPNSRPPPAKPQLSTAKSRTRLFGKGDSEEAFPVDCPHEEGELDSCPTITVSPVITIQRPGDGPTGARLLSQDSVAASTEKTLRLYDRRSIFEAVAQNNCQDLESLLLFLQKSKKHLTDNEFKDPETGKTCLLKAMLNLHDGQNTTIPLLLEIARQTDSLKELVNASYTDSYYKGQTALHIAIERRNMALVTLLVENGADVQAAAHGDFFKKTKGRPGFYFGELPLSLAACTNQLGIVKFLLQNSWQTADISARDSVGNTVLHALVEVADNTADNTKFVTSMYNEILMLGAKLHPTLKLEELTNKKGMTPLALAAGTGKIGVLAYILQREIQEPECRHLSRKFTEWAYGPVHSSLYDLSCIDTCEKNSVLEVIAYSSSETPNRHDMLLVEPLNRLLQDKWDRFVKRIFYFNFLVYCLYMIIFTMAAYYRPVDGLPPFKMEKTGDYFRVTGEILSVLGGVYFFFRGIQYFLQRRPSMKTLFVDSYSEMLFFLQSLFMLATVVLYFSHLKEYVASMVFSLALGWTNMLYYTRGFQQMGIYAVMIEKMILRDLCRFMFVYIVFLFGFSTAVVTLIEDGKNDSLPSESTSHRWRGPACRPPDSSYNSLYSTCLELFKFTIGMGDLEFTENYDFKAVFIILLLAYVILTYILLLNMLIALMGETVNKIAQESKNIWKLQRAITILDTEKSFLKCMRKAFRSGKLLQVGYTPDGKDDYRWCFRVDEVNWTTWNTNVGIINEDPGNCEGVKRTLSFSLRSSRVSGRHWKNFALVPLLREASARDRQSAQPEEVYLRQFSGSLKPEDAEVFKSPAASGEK

[4] = in ethanol, reported value; cited from earlier work
sensitized guinea-pigs = conditions: 1 mg/kg i.v.; cited from earlier work
[5] = Initial solubility studies of CBD in solvents; type: physicochemical
Description: First, the solubility of cannabidiol (CBD) was assessed. The powder looked granulated under the microscope. […] The conclusions from the solubility studies were that OA and IPA were very good solvents and it was surprising that IPA was so much better than ethanol.
Solubility studies: CBD dissolved at the 10% level in AE and barely 9.5% in IPM. Further exploration was not conducted due to the small amount of drug API available for non-GMP work. CBD is soluble greater than 10% but probably not in excess of 20%, as the time to dissolve additional CBD was taking considerably longer.

rats = conditions: 5 mg/kg i.v. once daily for 4 weeks; cited from earlier work

## C=C(C)[C@@H]1CCC(C)=C[C@H]1c1c(O)cc(CCCCC)cc1O [CBD1]
[1]
  discoloration of solution: colored by the end of the day

## C=C(C)[C@@H]1CCC(C)=C[C@H]1c1c(O)cc(CCCCC)cc1O [CBD2]
[1]
  discoloration of solution: None of the CBD2 solutions were colored at the end of day 1

## C=C(C)C1CCC(C)=CC1c1c(O)cc(CCCCC)cc1O (stereo not shown) [CBD, 2-[3-methyl-6-(1-methylethenyl)-2-cyclohexen-1-yl]-5-pentyl-1,3-benzenediol]
[2]
  effects on sebocytes: lipostatic, anti-proliferative, and anti-inflammatory effects
anandamide
  effect on anandamide: inhibit anandamide
[3]
  stimulation of human VR1: maximum effect similar in efficacy to that of capsaicin
[4]
  reported solubility of CBD: 3.5%
Sensitized guinea-pigs
  ovalbumin-induced airway obstruction: attenuated ovalbumin-induced airway obstruction
[5]; in arlamol E (AE), probably not in excess of 20%
  solubility of CBD: greater than 10%
[5]; in isopropyl myristate (IPM)
  solubility of CBD: ~9.5%
[5]; weight to weight, in ethanol
  solubility of CBD: 6-7%
[5]; weight to weight, in hexamethyldisiloxane (HDS)
  solubility of CBD: 3-4%
[5]; weight to weight, in isopropyl alcohol (IPA)
  solubility of CBD: greater than 14%
[5]; weight to weight, in mineral oil
  solubility of CBD: 3-4%
[5]; weight to weight, in oleyl alcohol (OA), did not go higher
  solubility of CBD: greater than 8%
[5]; weight to weight, in propylene glycol (PG)
  solubility of CBD: 6-7%
rats
  cardiac inflammation produced by doxorubicin: attenuated cardiac inflammation produced by doxorubicin
